Experimental data taken from patent US6166035A, “1,4-dihydropyridine derivatives and their use in therapy” (Laboratoire L. Lafon, priority 1997, dated 2000).

How the values were obtained:
[1] = test system: conscious, spontaneously hypertensive rats; assay: Hypotensive effect in conscious, spontaneously hypertensive rats; type: in vivo, rat; details: gastric route
Procedure: 3) Hypotensive effect in conscious, spontaneously hypertensive rats
The animals receive increasing doses of compound every 90 minutes via the gastric route.
The hypotensive effect is evaluated by means of the percentage of maximum reduction of the average arterial pressure after administration of each dose.

[2] = test system: coronary output of anaesthetized dogs; assay: Effect on the coronary output of anaesthetized dogs; type: in vivo, dog; details: intravenous
Procedure: 4) Effect on the coronary output of anaesthetized dogs
The animals receive increasing doses of compound every 30 minutes via the intravenous route. The effect on the coronary output is evaluated by means of its percentage of maximum variation after each dose.

[3] = biological target: T1, DHP sites of rat cardiac ventricles (Rattus norvegicus, UniProt P22002); assay: Anticalcium activity: affinity for the DHP sites of rat cardiac ventricles, displacement of (+)-[3H]-PN 200-110; type: binding; details: displacement of (+)-[3H]-PN 200-110, rat cardiac ventricle membranes, 30 minutes, 30° C.
T1 construct: membrane preparation of the receptors, this preparation being obtained after dissecting the ventricles; from tissue; host or cells: rat cardiac ventricles (membrane preparation)
T1 sequence (P22002 whole entry, other chains not shown): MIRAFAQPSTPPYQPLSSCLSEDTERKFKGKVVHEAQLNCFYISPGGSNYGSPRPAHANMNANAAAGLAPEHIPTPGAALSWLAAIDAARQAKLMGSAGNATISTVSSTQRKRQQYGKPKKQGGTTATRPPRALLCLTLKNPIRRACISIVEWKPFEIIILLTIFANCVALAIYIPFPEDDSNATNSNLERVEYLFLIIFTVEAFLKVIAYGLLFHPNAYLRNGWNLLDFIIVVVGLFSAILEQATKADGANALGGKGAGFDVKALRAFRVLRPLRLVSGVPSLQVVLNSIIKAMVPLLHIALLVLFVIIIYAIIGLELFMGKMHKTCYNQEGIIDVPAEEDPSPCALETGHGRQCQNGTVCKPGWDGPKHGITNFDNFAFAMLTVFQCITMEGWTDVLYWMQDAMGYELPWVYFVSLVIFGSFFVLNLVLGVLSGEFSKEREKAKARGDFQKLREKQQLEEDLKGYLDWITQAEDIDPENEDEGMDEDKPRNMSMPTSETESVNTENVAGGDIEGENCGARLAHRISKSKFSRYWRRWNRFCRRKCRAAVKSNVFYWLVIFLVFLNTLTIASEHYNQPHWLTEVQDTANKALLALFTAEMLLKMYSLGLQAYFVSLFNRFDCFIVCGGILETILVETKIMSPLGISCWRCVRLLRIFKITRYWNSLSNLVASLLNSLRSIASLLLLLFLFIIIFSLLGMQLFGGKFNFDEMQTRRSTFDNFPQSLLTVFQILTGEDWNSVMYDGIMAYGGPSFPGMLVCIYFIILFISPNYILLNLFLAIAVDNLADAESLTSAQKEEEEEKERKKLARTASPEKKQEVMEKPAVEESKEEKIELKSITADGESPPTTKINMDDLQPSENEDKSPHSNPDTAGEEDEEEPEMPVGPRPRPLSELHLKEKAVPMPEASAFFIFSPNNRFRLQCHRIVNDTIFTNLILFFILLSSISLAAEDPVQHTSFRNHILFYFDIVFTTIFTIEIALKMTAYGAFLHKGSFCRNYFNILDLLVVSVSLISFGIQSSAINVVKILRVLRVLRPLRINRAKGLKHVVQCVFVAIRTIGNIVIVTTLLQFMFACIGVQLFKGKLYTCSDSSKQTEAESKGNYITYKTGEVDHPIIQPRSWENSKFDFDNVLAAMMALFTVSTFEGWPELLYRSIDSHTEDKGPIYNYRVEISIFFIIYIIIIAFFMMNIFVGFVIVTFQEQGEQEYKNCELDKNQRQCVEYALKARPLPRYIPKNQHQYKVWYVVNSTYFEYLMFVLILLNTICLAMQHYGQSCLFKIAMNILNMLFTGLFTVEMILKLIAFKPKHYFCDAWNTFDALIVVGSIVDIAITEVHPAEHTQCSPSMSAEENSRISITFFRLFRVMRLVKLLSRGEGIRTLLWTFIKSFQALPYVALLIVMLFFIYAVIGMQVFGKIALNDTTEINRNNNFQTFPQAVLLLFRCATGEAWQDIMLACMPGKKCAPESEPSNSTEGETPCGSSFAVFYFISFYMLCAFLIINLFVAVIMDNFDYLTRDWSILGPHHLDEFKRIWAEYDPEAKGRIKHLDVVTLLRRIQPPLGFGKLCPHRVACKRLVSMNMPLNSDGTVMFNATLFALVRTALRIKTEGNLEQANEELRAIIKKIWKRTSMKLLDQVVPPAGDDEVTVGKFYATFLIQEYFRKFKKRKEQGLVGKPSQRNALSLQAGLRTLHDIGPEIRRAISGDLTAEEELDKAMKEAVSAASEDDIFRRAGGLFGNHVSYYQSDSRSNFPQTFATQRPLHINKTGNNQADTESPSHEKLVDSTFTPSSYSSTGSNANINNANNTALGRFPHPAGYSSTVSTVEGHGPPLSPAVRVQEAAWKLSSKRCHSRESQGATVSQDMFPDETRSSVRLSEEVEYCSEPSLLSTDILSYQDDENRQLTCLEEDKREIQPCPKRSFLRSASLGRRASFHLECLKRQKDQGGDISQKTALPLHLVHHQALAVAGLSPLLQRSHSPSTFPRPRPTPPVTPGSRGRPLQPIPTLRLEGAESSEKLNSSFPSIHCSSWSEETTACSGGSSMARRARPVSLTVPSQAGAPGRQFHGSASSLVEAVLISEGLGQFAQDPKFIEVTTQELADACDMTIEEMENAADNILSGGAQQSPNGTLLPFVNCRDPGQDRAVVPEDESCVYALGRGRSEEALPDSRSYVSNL
T1 sequence (P54290 25-944 partner limits assumed, other chains not shown): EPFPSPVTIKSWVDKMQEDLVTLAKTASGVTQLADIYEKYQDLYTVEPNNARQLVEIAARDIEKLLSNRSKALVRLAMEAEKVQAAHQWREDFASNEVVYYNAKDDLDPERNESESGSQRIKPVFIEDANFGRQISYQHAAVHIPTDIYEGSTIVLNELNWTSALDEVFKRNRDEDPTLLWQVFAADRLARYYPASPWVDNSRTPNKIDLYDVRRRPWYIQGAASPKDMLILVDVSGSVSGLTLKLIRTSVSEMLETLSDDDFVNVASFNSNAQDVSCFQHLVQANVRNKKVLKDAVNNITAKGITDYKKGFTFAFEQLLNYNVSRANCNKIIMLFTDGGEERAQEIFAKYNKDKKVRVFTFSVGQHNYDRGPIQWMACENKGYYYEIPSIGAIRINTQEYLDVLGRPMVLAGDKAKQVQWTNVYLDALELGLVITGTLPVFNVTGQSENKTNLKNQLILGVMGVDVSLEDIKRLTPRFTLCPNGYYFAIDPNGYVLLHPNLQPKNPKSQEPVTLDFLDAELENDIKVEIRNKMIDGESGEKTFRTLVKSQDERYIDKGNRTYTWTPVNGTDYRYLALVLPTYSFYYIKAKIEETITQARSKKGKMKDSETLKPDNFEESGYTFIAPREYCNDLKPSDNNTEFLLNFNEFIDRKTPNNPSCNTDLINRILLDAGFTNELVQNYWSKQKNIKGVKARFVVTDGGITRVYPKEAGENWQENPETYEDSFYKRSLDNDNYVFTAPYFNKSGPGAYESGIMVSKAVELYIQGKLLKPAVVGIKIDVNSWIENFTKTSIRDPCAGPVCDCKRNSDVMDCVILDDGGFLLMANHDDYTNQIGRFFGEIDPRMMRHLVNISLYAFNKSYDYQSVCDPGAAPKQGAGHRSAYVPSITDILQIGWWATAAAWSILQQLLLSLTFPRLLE
T1 sequence (P54290 945-1091 partner limits assumed, other chains not shown): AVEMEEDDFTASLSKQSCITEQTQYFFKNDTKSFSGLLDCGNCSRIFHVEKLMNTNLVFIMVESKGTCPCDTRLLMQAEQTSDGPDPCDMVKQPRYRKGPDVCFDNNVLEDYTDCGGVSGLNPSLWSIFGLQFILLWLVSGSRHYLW
Procedure: 1) Anticalcium activity by measuring the affinity for the DHP sites of rat cardiac ventricles
These membrane preparations are placed in contact with the specific radioactive ligand (+)-[^3 H]-PN 200-110 and the test compound, at different concentrations. The suspension is stirred for 30 minutes at a temperature of 30° C. The reaction is then stopped by filtration using a Harvester-type system. The filter is introduced into a counting flask containing scintillation liquid. The radioactivity present on each filter is then measured by counting in a β-counter with liquid scintillation.
The intensity of the binding to the membrane receptors is defined by the (molar) concentration of the test compound which is needed to displace 50% of the amount of the specific ligand (+)-[^3 H]-PN 200-110 prebound to the DHP sites. This concentration is the IC50 concentration.

anaesthetized dogs = assay: Therapeutic index: minimum arrhythmogenic dose / dose active on the coronary output, anaesthetized dogs; type: in vivo, dog; design: minimum arrhythmogenic dose: unit: µg/kg; details: for ED (50% increase): Canis lupus familiaris, iv, read-out: dose which is active on the coronary output (increases the basal coronary output by 50%); for minimum arrhythmogenic dose: anaesthetized dogs, intravenous route
Text: (§1) 5) Therapeutic index The therapeutic index is defined as being the ratio between the minimum arrhythmogenic dose and the dose which increases the basal coronary output by 50% (this dose is referred to hereinbelow as the "dose which is active on the coronary output").

[4] = as above; type: in vivo, dog; design: minimum arrhythmogenic dose: unit: µg/kg; details: dog, in vivo; ratio, anaesthetized dogs, intravenous route; read-out: Arrhythmogenic dose/dose which is active on the coronary output (therapeutic index)
Text: as §1

isolated rat aorta = assay: Anticalcium activity: antagonism of KCl-mediated contraction of isolated rat aorta; details: KCl 5×10^-2 M.l^-1 contraction, isolated rat thoracic aorta ring
Procedure: 2) Anticalcium activity by measuring the KCl-mediated antagonism of the contraction of isolated rat aorta
The technique employed uses a ring of arterial vascular tissue taken from rat thoracic aorta and then kept alive in aerated bicarbonated Krebs buffer, and subjected to an initial tension of 2 g. The introduction of potassium chloride KCl (in a volume of 300 μl) at a concentration 5×10^-2 M.l^-1 into the Krebs buffer bath generates a sustained contraction whose amplitude (isometric tension) is antagonized by the addition of a solution of the test compound of increasing concentrations, each addition being made every 5 minutes. The molar concentration of the test compound which reduces by 50% the maximum contraction observed in KCl is then calculated. This concentration is the 50% inhibitory concentration (or IC50).

[5] = dose +10 mg/kg, increasing doses every 90 minutes
[6] = dose +30 mg/kg, increasing doses every 90 minutes
[7] = dose +10 μg/kg, increasing doses every 30 minutes
[8] = dose +20 μg/kg, increasing doses every 30 minutes
[9] = dose +40 μg/kg, increasing doses every 30 minutes
[10] = dose +80 μg/kg, increasing doses every 30 minutes
[11] = dose +160 μg/kg, increasing doses every 30 minutes
[12] = dose +320 μg/kg, increasing doses every 30 minutes

SMILES	percentage of maximum reduction of the average arterial pressure ([1]; dose 3 mg/kg) [%]	percentage of maximum reduction of the average arterial pressure [1, 5] [%]	percentage of maximum reduction of the average arterial pressure [1, 6] [%]	percentage of maximum variation of the coronary output ([2]; dose 5 μg/kg)	percentage of maximum variation of the coronary output [2, 7]	percentage of maximum variation of the coronary output [2, 8]	percentage of maximum variation of the coronary output [2, 9]	percentage of maximum variation of the coronary output [2, 10]	percentage of maximum variation of the coronary output [2, 11]	percentage of maximum variation of the coronary output [2, 12]	IC50 [3] [nM]	ED (50% increase) (anaesthetized dogs) [mg/kg]	minimum arrhythmogenic dose (anaesthetized dogs)	selectivity ratio [4]	IC50 (isolated rat aorta) [nM]
COC(=O)C1=C(C)NC(C)=C(C(=O)O[C@@H]2CCCN(CCCCC(=O)c3cccs3)C2)[C@H]1c1cccc([N+](=O)[O-])c1 [Example 1, (4S,3'R)(-)N-[4-(2-thienoyl)-butyl]piperid-3'-yl 2,6-dimethyl-4-(3-nitrophenyl)-5-methoxycarbonyl-1,4-dihydropyridine-3-carboxylate]	0	-22	-45	12%	+28%	+56%	+72%	+81%	+67%	+64%	15	0.02	640	32	130
COC(=O)C1=C(C)NC(C)=C(C(=O)O[C@@H]2CCN(CCCCC(=O)c3c(OC)cc(OC)cc3OC)C2)[C@H]1c1cccc([N+](=O)[O-])c1 [Example 2, (4S,3'R)(-)N-[4-(2,4,6-trimethoxybenzoyl)butyl]pyrrolidin-3'-yl 2,6-dimethyl-4-(3-nitrophenyl)-5-methoxycarbonyl-1,4-dihydropyridine-3-carboxylate]	–	–	–	+16%	+14%	+34%	+78%	+68%	+59%	+33%	7.8	0.04	640	16	–
COC(=O)C1=C(C)NC(C)=C(C(=O)O[C@@H]2CCCN(CCCCC(=O)c3ccc[nH]3)C2)[C@H]1c1cccc([N+](=O)[O-])c1 [Example 3, (4S,3'R)(-)N-[5-(1H-pyrrol-2-yl)-5-oxopentyl]piperid-3'-yl 2,6-dimethyl-4-(3-nitrophenyl)-5-methoxycarbonyl-1,4-dihydropyridine-3-caroxylate]	-12	-21	-54	+7%	+30%	+59%	+76%	+84%	+84%	+59%	–	0.02	640	32	160
COC(=O)C1=C(C)NC(C)=C(C(=O)O[C@@H]2CCCN(CCCC(=O)c3cccs3)C2)[C@H]1c1cccc([N+](=O)[O-])c1 [Example A, reference compound]	–	–	–	–	–	–	–	–	–	–	–	0.64	640	1	–
COC(=O)C1=C(C)NC(C)=C(C(=O)O[C@@H]2CCN(CCCC(=O)c3c(OC)cc(OC)cc3OC)C2)[C@H]1c1cccc([N+](=O)[O-])c1 [Example B, reference compound]	–	–	–	–	–	–	–	–	–	–	–	0.64	640	1	–
